# Laboratory results reported in ChEMBL document CHEMBL4002623, “Synthesis and in vitro activity of dicationic indolyl diphenyl ethers as novel potent antibiotic agents against drug-resistant bacteria” (Bioorg Med Chem Lett, 2017).
# Key:
# [1] = system: Enterococcus faecium; assay: Antibacterial activity against vancomycin-resistant Enterococcus faecium ATCC 700221 by agar dilution method; format: functional
# [2] = system: Providencia rettgeri; assay: Antibacterial activity against Providencia rettgeri ATCC 31052 by agar dilution method; format: functional
# [3] = system: Klebsiella pneumoniae; assay: Antibacterial activity against extended-spectrum beta-lactamase-positive Klebsiella pneumoniae 09-25 by agar dilution method; format: functional
# [4] = system: Serratia marcescens; assay: Antibacterial activity against Serratia marcescens 41002 by agar dilution method; format: functional
# [5] = system: Enterococcus faecalis; assay: Antibacterial activity against vancomycin-sensitive Enterococcus faecalis 09-8 by agar dilution method; format: functional
# [6] = system: Pseudomonas aeruginosa; assay: Antibacterial activity against Pseudomonas aeruginosa PAO1 by agar dilution method; format: functional
# [7] = system: Escherichia coli; assay: Antibacterial activity against extended-spectrum beta-lactamase-negative Escherichia coli 1515 by agar dilution method; format: functional
# [8] = system: Enterobacter cloacae; assay: Antibacterial activity against Enterobacter cloacae 45301 by agar dilution method; format: functional
# [9] = system: Morganella morganii; assay: Antibacterial activity against Morganella morganii ATCC 25830 by agar dilution method; format: functional
# [10] = system: Enterococcus faecalis; assay: Antibacterial activity against vancomycin-resistant Enterococcus faecalis ATCC 51299 by agar dilution method; format: functional
# [11] = system: Klebsiella pneumoniae; assay: Antibacterial activity against extended-spectrum beta-lactamase-positive Klebsiella pneumoniae ATCC 700603 by agar dilution method; format: functional
# [12] = system: Klebsiella aerogenes; assay: Antibacterial activity against Enterobacter aerogenes 45102 by agar dilution method; format: functional
# [13] = system: Klebsiella pneumoniae; assay: Antibacterial activity against extended-spectrum beta-lactamase-negative Klebsiella pneumoniae 09-8 by agar dilution method; format: functional
# [14] = system: Salmonella typhi; assay: Antibacterial activity against Salmonella typhi H901 by agar dilution method; format: functional, Salmonella enterica subsp. enterica serovar Typhi; conditions: Salmonella enterica
# [15] = system: Pseudomonas aeruginosa; assay: Antibacterial activity against Pseudomonas aeruginosa ATCC 27853 by agar dilution method; format: functional
# [16] = system: Staphylococcus epidermidis; assay: Antibacterial activity against methicillin-sensitive Staphylococcus epidermidis 09-9 by agar dilution method; format: functional
# [17] = system: Proteus mirabilis; assay: Antibacterial activity against Proteus mirabilis 09-1 by agar dilution method; format: functional
# [18] = system: Pseudomonas aeruginosa; assay: Antibacterial activity against Pseudomonas aeruginosa 09-14 by agar dilution method; format: functional
# [19] = system: Enterococcus faecalis; assay: Antibacterial activity against vancomycin-resistant Enterococcus faecalis 09-9 by agar dilution method; format: functional
# [20] = system: Enterococcus faecium; assay: Antibacterial activity against vancomycin-resistant Enterococcus faecium 05-8 by agar dilution method; format: functional
# [21] = system: Staphylococcus aureus; assay: Antibacterial activity against methicillin-resistant Staphylococcus aureus 09-13 by agar dilution method; format: functional
# [22] = Cytotoxicity against HEK293T cells after 48 hrs by MTS assay; format: cell-based, HEK-293T; conditions: human
# [23] = system: Klebsiella pneumoniae; assay: Potency index, ratio of levofloxacin MIC to test compound MIC for Klebsiella pneumoniae ATCC BAA-2146 expressing NDM-1; format: functional
# [24] = system: Escherichia coli; assay: Antibacterial activity against extended-spectrum beta-lactamase-negative Escherichia coli ATCC 25922 by agar dilution method; format: functional
# [25] = system: Staphylococcus aureus; assay: Antibacterial activity against methicillin-resistant Staphylococcus aureus ATCC 33591 by agar dilution method; format: functional
# [26] = system: Klebsiella pneumoniae; assay: Antibacterial activity against Klebsiella pneumoniae ATCC BAA-2146 expressing NDM-1 by agar dilution method; format: functional
# [27] = system: Klebsiella pneumoniae; assay: Antibacterial activity against extended-spectrum beta-lactamase-negative Klebsiella pneumoniae 7 by agar dilution method; format: functional
# [28] = system: Enterococcus faecium; assay: Antibacterial activity against vancomycin-sensitive Enterococcus faecium 09-10 by agar dilution method; format: functional
# [29] = system: Staphylococcus epidermidis; assay: Antibacterial activity against methicillin-resistant Staphylococcus epidermidis 09-3 by agar dilution method; format: functional
# [30] = system: Staphylococcus aureus; assay: Antibacterial activity against methicillin-sensitive Staphylococcus aureus ATCC 29213 by agar dilution method; format: functional
# [31] = system: Citrobacter freundii; assay: Antibacterial activity against Citrobacter freundii ATCC 43864 by agar dilution method; format: functional
# [32] = system: Acinetobacter calcoaceticus; assay: Antibacterial activity against Acinetobacter calcoaceticus ATCC 19606 by agar dilution method; format: functional
# [33] = system: Staphylococcus aureus; assay: Antibacterial activity against methicillin-sensitive Staphylococcus aureus 15 by agar dilution method; format: functional
# [34] = system: Enterococcus faecalis; assay: Antibacterial activity against vancomycin-sensitive Enterococcus faecalis ATCC 29212 by agar dilution method; format: functional
# [35] = system: Staphylococcus epidermidis; assay: Antibacterial activity against methicillin-sensitive Staphylococcus epidermidis ATCC 12228 by agar dilution method; format: functional
# [36] = system: Proteus vulgaris; assay: Antibacterial activity against Proteus vulgaris ATCC 29905 by agar dilution method; format: functional
# [37] = system: Escherichia coli; assay: Antibacterial activity against extended-spectrum beta-lactamase-positive Escherichia coli 09-1 by agar dilution method; format: functional
# [38] = system: Staphylococcus aureus; assay: Antibacterial activity against methicillin-sensitive Staphylococcus aureus 09-6 by agar dilution method; format: functional
# [39] = system: Escherichia coli; assay: Antibacterial activity against extended-spectrum beta-lactamase-negative Escherichia coli 09-20 by agar dilution method; format: functional
structure (smiles),measurement,setting,value
CN(C)C(=N)c1ccc2cc(-c3ccc(Oc4ccc(-c5cc6ccc(C(=N)N(C)C)cc6[nH]5)cc4)cc3)[nH]c2c1,MIC,[1],2 µg/mL
same,MIC,[2],8 µg/mL
same,MIC,[3],8 µg/mL
same,MIC,[4],32 µg/mL
same,MIC,[5],2 µg/mL
same,MIC,[6],> 128 µg/mL
same,MIC,[7],4 µg/mL
same,MIC,[8],64 µg/mL
same,MIC,[9],> 128 µg/mL
same,MIC,[10],1 µg/mL
same,MIC,[11],8 µg/mL
same,MIC,[12],8 µg/mL
same,MIC,[13],8 µg/mL
same,MIC,[14],16 µg/mL
same,MIC,[15],128 µg/mL
same,MIC,[16],0.25 µg/mL
same,MIC,[17],32 µg/mL
same,MIC,[18],> 128 µg/mL
same,MIC,[19],2 µg/mL
same,MIC,[20],2 µg/mL
same,MIC,[21],0.25 µg/mL
same,CC50 at 48 h,[22],21.6 µg/mL
same,Ratio,[23],>16
same,MIC,[24],4 µg/mL
same,MIC,[25],0.25 µg/mL
same,MIC,[26],8 µg/mL
same,MIC,[27],8 µg/mL
same,MIC,[28],2 µg/mL
same,MIC,[29],0.25 µg/mL
same,MIC,[30],0.25 µg/mL
same,MIC,[31],8 µg/mL
same,MIC,[32],> 128 µg/mL
same,MIC,[33],0.25 µg/mL
same,MIC,[34],0.5 µg/mL
same,MIC,[35],0.125 µg/mL
same,MIC,[36],8 µg/mL
same,MIC,[37],8 µg/mL
same,MIC,[38],0.25 µg/mL
same,MIC,[39],8 µg/mL
N=C(NC1CCCCC1)c1ccc2cc(-c3ccc(Oc4ccc(-c5cc6ccc(C(=N)NC7CCCCC7)cc6[nH]5)cc4)cc3)[nH]c2c1,MIC,[1],2 µg/mL
same,MIC,[2],> 128 µg/mL
same,MIC,[3],128 µg/mL
same,MIC,[4],128 µg/mL
same,MIC,[5],4 µg/mL
same,MIC,[6],> 128 µg/mL
same,MIC,[7],128 µg/mL
same,MIC,[8],128 µg/mL
same,MIC,[9],64 µg/mL
same,MIC,[10],4 µg/mL
same,MIC,[11],> 128 µg/mL
same,MIC,[12],128 µg/mL
same,MIC,[13],128 µg/mL
same,MIC,[14],64 µg/mL
same,MIC,[15],> 128 µg/mL
same,MIC,[16],2 µg/mL
same,MIC,[17],> 128 µg/mL
same,MIC,[18],> 128 µg/mL
same,MIC,[19],8 µg/mL
same,MIC,[20],4 µg/mL
same,MIC,[21],2 µg/mL
same,CC50 at 48 h,[22],59.2 µg/mL
same,MIC,[24],64 µg/mL
same,MIC,[25],2 µg/mL
same,MIC,[26],128 µg/mL
same,MIC,[27],128 µg/mL
same,MIC,[28],8 µg/mL
same,MIC,[29],2 µg/mL
same,MIC,[30],4 µg/mL
same,MIC,[31],128 µg/mL
same,MIC,[32],64 µg/mL
same,MIC,[33],2 µg/mL
same,MIC,[34],4 µg/mL
same,MIC,[35],1 µg/mL
same,MIC,[36],128 µg/mL
same,MIC,[37],128 µg/mL
same,MIC,[38],4 µg/mL
same,MIC,[39],128 µg/mL
